Test results from patent publication US20120035251A1, “THIOPHENE INHIBITORS OF IKK-B SERINE-THREONINE PROTEIN KINASE” (CHROMA THERAPEUTICS LD., priority 2009, published 2012).
Like-named read-outs stand apart in the source and are kept apart here.

How the values were obtained:
IKKβ = molecular target: T1, IKKβ (Homo sapiens, UniProt O14920); experiment: IKKβ enzyme assay (Z'-LYTE, Invitrogen); format: biochemical
T1 construct: purchased Invitrogen (Paisley, UK)
T1 sequence (O14920 1-756): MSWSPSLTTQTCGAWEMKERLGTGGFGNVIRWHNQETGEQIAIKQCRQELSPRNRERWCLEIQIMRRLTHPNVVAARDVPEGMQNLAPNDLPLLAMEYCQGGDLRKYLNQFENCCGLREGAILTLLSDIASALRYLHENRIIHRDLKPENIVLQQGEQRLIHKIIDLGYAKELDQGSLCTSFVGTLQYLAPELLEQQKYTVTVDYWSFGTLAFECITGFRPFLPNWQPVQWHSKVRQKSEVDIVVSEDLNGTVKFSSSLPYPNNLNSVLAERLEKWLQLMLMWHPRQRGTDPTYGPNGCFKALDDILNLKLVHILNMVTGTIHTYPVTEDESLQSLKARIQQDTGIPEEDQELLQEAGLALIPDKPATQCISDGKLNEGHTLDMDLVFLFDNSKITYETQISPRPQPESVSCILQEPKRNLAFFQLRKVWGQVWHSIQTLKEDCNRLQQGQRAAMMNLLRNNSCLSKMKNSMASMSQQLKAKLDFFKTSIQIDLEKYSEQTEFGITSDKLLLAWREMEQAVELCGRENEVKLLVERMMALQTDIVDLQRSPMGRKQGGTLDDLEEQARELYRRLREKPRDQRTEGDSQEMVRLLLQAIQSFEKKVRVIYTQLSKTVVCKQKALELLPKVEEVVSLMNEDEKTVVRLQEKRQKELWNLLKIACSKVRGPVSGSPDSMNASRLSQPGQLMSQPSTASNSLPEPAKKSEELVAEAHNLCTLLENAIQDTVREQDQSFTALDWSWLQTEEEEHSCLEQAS
Method: The ability of compounds to inhibit IKKβ kinase activity was measured in an assay performed by Invitrogen (Paisley, UK). The Z′-LYTE™ biochemical assay employs a fluorescence-based, coupled-enzyme format and is based on the differential sensitivity of phosphorylated and non-phosphorylated peptides to proteolytic cleavage. The peptide substrate is labelled with two fluorophores—one at each end—that make up a FRET pair. In the primary reaction, the kinase transfers the gamma-phosphate of ATP to a single serine or threonine residue in a synthetic FRET-peptide. In the secondary reaction, a site-specific protease recognizes and cleaves non-phosphorylated FRET-peptides. Phosphorylation of FRET-peptides suppresses cleavage by the Development Reagent. Cleavage disrupts FRET between the donor (i.e., coumarin) and acceptor (i.e. fluorescein) fluorophores on the FRET-peptide, whereas uncleaved, phosphorylated FRET-peptides maintain FRET. A […] method, which calculates the ratio (the Emission Ratio) of donor emission to acceptor emission after excitation of the donor fluorophore at 400 nm, is used to quantitate reaction progress.
The final 10 μL Kinase Reaction consists of 0.9-8.0 ng IκBKB (IKKβ), 2 μM Ser/Thr 05 Peptide and ATP in 50 mM HEPES pH 7.5, 0.01% BRIJ-35, 10 mM MgCl2, 1 mM EGTA. The assay is performed at an ATP concentration at, or close to the Km. After the 60 minute Kinase Reaction incubation at room temperature, 5 μL of a 1:128 dilution of Development Reagent is added. The assay plate is incubated for a further 60 minutes at room temperature and read on a fluorescence plate reader.
Duplicate data points are generated from a 1/3 log dilution series of a stock solution of test compound in DMSO. Nine dilutions steps are made from a top concentration of 10 μM, and a ‘no compound’ blank is included. Data is collected and analysed using XLfit software from IDBS. The dose response curve is curve fitted to model number 205 (sigmoidal dose-response model). From the curve generated, the concentration giving 50% inhibition is determined and reported.

[1] = system: TNF-α production in human whole blood; experiment: LPS-stimulation of human whole blood, TNF-α by ELISA; format: cell-based
Method: Whole blood was taken by venous puncture using heparinised vacutainers (Becton Dickinson) and diluted in an equal volume of RPMI1640 tissue culture media (Sigma). 100 μl was plated in V-bottomed 96 well tissue culture treated plates. 2 hours after the addition of the inhibitor in 100 μlof RPMI1640 media, the blood was stimulated with LPS (E coli strain 005:B5, Sigma) at a final concentration of 100 ng/ml and incubated at 37° C. in 5% CO2 for 6 hours. TNF-α levels were measured from cell-free supernatants by sandwich ELISA (R&D Systems #QTA00B).

[2] = system: TNF-α production in THP-1 cells; experiment: LPS-stimulation of THP-1 cells, TNF-α by ELISA; format: cell-based; settings: Homo sapiens
Method: THP-1 cells were plated in 100 μl at a density of 4×10^4 cells/well in V-bottomed 96 well tissue culture treated plates and incubated at 37° C. in 5% CO2 for 16 hours. 2 hours after the addition of the inhibitor in 100 μl of tissue culture media, the cells were stimulated with LPS (E coli strain 005:B5, Sigma) at a final concentration of 1 μg/ml and incubated at 37° C. in 5% CO2 for 6 hrs. TNF-α levels were measured from cell-free supernatants by sandwich ELISA (R&D Systems #QTA00B).

[3] = system: U937 (monocyte cell line) cells; experiment: Intact cell accumulation assay, U937 cells; format: in vitro ADME; settings: 6 μmol/L compound
Method: (§1) Cells (4×10^4/mL) were incubated at 37° C. in culture medium containing 6 μmol/L compound in a 5% (v/v) CO2-humidified atmosphere. Incubations were terminated after 6 h by centrifugation of 25 mL aliquots of the cell suspension at 1500 rpm for 5 min at 4° C. 0.2 mL samples of the culture media supernatants were added to four volumes of acetonitrile. After decanting the supernatant, the residual cell pellet (10^6 cells) was extracted into 1 mL of acetonitrile. Samples were then analyzed for the ester and acid metabolite at room temperature by LC/MS/MS (Sciex API3000). Chromatography was based on a MeCN (75×21 mm) column with a 5% to 95% (v/v) acetonitrile/water, 0.1% (v/v) formic acid mobile phase. For the zero time samples, the cell suspension was chilled and centrifuged as soon as the ester had been added and then extracted into acetonitrile as described. Levels in cells are expressed as ng/mL.

[4] = system: HUT78 (non-monocyte cell line) cells; experiment: Intact cell accumulation assay, HUT78 cells; format: in vitro ADME; settings: 6 μmol/L compound
Method: as §1

[5] = read-out: IC50 (nM) IKKβ Enzyme
[6] = compound as drawn (Ester for the Example 1 row), read-out: Inhibition of IKKβ (IC50 nM)
[7] = THP-1, read-out: Inhibition of TNF-α production in THP-1 cells (IC50)
[8] = LPS-stimulated human whole blood, TNF-α, read-out: IC50 (nM) Human Whole Blood
[9] = LPS-stimulated THP-1 cells, TNF-α, read-out: IC50 (nM) THP-1

SMILES: CC(C)C[C@H](NCc1ccc(CCc2cc(C(N)=O)c(NC(N)=O)s2)cc1)C(=O)O [Example 6, N-(4-{2-[4-Carbamoyl-5-(carbamoylamino)-2-thienyl]ethyl}benzyl)-L-leucine]
- IC50 (IKKβ; [5]): 500 to 5000 nM

SMILES: NC(=O)Nc1sc(Cc2ccccc2)cc1C(N)=O [reference compound]
- Ratio of whole blood IC50 to enzyme IC50 [1]: >20
- inhibition at 10 µM ([1]; Homo sapiens, @10 μM, read-out: Inhibition of TNF-α production in human whole blood, % at single concentration): 28%
- IC50 (IKKβ; [6]): 486 nM
- IC50 [2, 7]: 2710 nM

SMILES: CC(C)C[C@H](NCc1ccc(CCc2cc(C(N)=O)c(NC(N)=O)s2)cc1)C(=O)OC1CCCC1 [Example 3, Cyclopentyl N-(4-{2-[4-carbamoyl-5-(carbamoylamino)-2-thienyl]ethyl}benzyl)-L-leucinate]
- IC50 [1, 8]: 500 to 5000 nM
- IC50 (IKKβ; [5]): > 5000 nM
- IC50 [2, 9]: > 5000 nM

SMILES: CC(C)C[C@H](NCc1ccc(Cc2cc(C(N)=O)c(NC(N)=O)s2)cc1)C(=O)O [Example 5, N-(4-{[4-Carbamoyl-5-(carbamoylamino)-2-thienyl]methyl}benzyl)-L-leucine]
- Concentration in U937 cell line ([3]; 0 hrs incubation): 68 ng/10^6 cells
- Concentration in U937 cell line ([3]; 6 hrs incubation): 286 ng/10^6 cells
- Concentration in HUT78 cell line ([4]; 0 hrs incubation): 0 ng/10^6 cells
- IC50 (IKKβ; [5]): < 500 nM

SMILES: CC(C)C[C@H](NCc1ccc(Cc2cc(C(N)=O)c(NC(N)=O)s2)cc1)C(=O)OC(C)(C)C [Example 2, tert-Butyl N-(4-{[4-carbamoyl-5-(carbamoylamino)-2-thienyl]methyl}benzyl)-L-leucinate]
- IC50 [1, 8]: > 5000 nM
- IC50 (IKKβ; [5]): 500 to 5000 nM
- IC50 [2, 9]: > 5000 nM

SMILES: CC(C)C[C@H](NCc1ccc(Cc2cc(C(N)=O)c(NC(N)=O)s2)cc1)C(=O)OC1CCCC1 [Example 1, Cyclopentyl N-(4-{[4-carbamoyl-5-(carbamoylamino)-2-thienyl]methyl}benzyl)-L-leucinate]
- Concentration in U937 cell line ([3]; 0 hrs incubation): 420 ng/10^6 cells
- Concentration in U937 cell line ([3]; 6 hrs incubation): 217 ng/10^6 cells
- Ratio of whole blood IC50 to enzyme IC50 [1]: 0.05
- IC50 ([1]; Homo sapiens, read-out: Inhibition of TNF-α production in human whole blood (IC50)): 497 nM
- IC50 [1, 8]: < 500 nM
- Concentration in HUT78 cell line ([4]; 0 hrs incubation): 466 ng/10^6 cells
- Concentration in HUT78 cell line ([4]; 6 hrs incubation): 465 ng/10^6 cells
- IC50 (IKKβ; Acid: the acid of the drawn ester (Example 1), read-out: Inhibition of IKKβ (IC50 nM), Acid): 369 nM
- IC50 (IKKβ; [6]): 10000 nM
- IC50 (IKKβ; [5]): > 5000 nM
- IC50 [2, 7]: 1940 nM
- IC50 [2, 9]: 500 to 5000 nM

SMILES: CC(C)C[C@H](NCc1ccc(C#Cc2cc(C(N)=O)c(NC(N)=O)s2)cc1)C(=O)OC1CCCC1 [Example 4, Cyclopentyl N-(4-{[4-carbamoyl-5-(carbamoylamino)-2-thienyl]ethynyl}benzyl)-L-leucinate]
- IC50 [1, 8]: 500 to 5000 nM
- IC50 (IKKβ; [5]): > 5000 nM
- IC50 [2, 9]: 500 to 5000 nM
